Test results reported in publication PMC4014984, “The tetrapeptide core of the carrier peptide Xentry is cell-penetrating: novel activatable forms of Xentry” (Scientific Reports, 2014).
Square brackets hold non-standard residues; d marks the D form. Peptide text beside a SMILES is read from it. * marks the point of attachment. FITC = O=C1OC2(c3ccc(O)cc3Oc3cc(O)ccc32)c2ccc(NC(=S)*)cc21

Tests used:
MCF-7 cells = assay: Uptake of activatable Xentry peptides with or without MMP-9 pretreatment; conditions: then 3 h with MCF-7 cells, fluorescence or confocal microscopy
HepG2 cells [1] = system: HepG2 cells
WM-266-4 cells = assay: Cell-penetrating ability of Xentry peptides, fluorescence microscopy; conditions: for Uptake by WM-266-4 cells (in words): FITC-labelled L-isomeric peptides, 10 μM, 3 h, fixed cells; for Uptake by WM-266-4 cells: scored visually, labelled peptides incubated 3 h at 37°C, L-isomers in media without FCS, D-isomers with FCS
BT549 cells = assay: as above; conditions: for Uptake by BT549 cells (in words): FITC-labelled L-isomeric peptides, 10 μM, 3 h, fixed cells; for Uptake by BT-549cells: scored visually, labelled peptides incubated 3 h at 37°C, L-isomers in media without FCS
HepG2 cells [2] = assay: Cell-penetrating ability of Xentry peptides, fluorescence/confocal microscopy; conditions: for Uptake by HepG2 cells (in words): FITC-labelled L-isomeric peptides, 10 μM, 3 h, fixed cells, fluorescence or confocal microscopy; for Uptake by HepG2 cells: scored visually, fluorescence microscopy, labelled peptides incubated 3 h at 37°C, L-isomers in media without FCS, D-isomers with FCS
HepG2 cells [3] = assay: Quantification of peptide uptake by overall cell fluorescence in wells (plate reader); conditions: HepG2, 10 μM, 3 h, media without FCS, plate reader ex 485 nm / em 520 nm, mean ± SD n = 4, Student's t-test
HepG2 cells [4] = system: HepG2 cells; remark: listed apart in the source

Compound	Uptake by WM-266-4 cells (in words) (WM-266-4 cells)	Uptake by WM-266-4 cells (WM-266-4 cells)	Uptake by BT549 cells (in words) (BT549 cells)	Uptake by HepG2 cells (in words) (HepG2 cells [2])	Uptake by BT-549cells (BT549 cells)	Uptake by HepG2 cells (HepG2 cells [2])	other results
CC(C)C[C@@H](N)C(=O)N[C@H](CS)C(=O)N[C@H](CC(C)C)C(=O)N[C@H](CCCNC(=N)N)C(=O)N1CCC[C@@H]1C(=O)N[C@@H](C(=O)NCC(=O)NCC(=O)NCC(=O)NCC(=O)N1CCC[C@H]1C(=O)N[C@@H](CC(C)C)C(=O)NCC(=O)N[C@@H](CC(C)C)C(=O)N[C@@H](C)C(=O)NCC(=O)NCC(=O)N[C@H](CC(C)C)C(=O)N[C@H](CS)C(=O)N[C@H](CC(C)C)C(=O)N[C@H](CCCNC(=N)N)C(=O)N1CCC[C@@H]1C(=O)N[C@@H](C(=O)NCC(=O)N[C@H](CCCCNC(=S)Nc1ccc2c(c1)C(=O)OC21c2ccc(O)cc2Oc2cc(O)ccc21)C(=O)O)C(C)C)C(C)C [lclrpvGGGGPLGLAGGlclrpvgk-FITC] (H-[dL][dC][dL][dR][dP][dV]GGGGPLGLAGG[dL][dC][dL][dR][dP][dV]G[dK](FITC)-OH)							Uptake by MCF-7 cells after pretreatment with MMP-9 (MCF-7 cells; 10 μM peptide incubated 3 h at 37°C with activated MMP-9 (0.4 μg/ml)): led to uptake of the digested peptide; Uptake by MCF-7 cells, peptide not treated with MMP-9 (MCF-7 cells; 10 μM peptide left untreated): not cell-permeable
GRKKRRQRRRPPQGGRRRQQQQQQRRR [penetratin]							Effect on viability of HepG2 cells (HepG2 cells [1]): no significant affect
LCLE	readily taken up	+++	readily taken up	less well	+++	++	Cell-penetrating ability compared with LCLR (overall cell fluorescence in wells) (HepG2 cells [3]): not significantly different
LCLRPVG					+++		
LCLRPVGGGGGGGGGGGGGGGLCLRPVG							Uptake of linear multivalent forms of Xentry by HepG2 cells (HepG2 cells [4]): unable to penetrate
LCLRPVGGGRRRQQQQQQRRR							Effect on HepG2 viability relative to the other three CPPs (HepG2 cells [1]): least effect; Effect on viability of HepG2 cells (HepG2 cells [1]): no significant affect
LLLLR	poorly cell-permeable	-	poorly cell-permeable	poorly penetrated	+	+	
LLLR	poorly cell-permeable	-	poorly cell-permeable	poorly penetrated	-	-	
LLLRR	poorly cell-permeable	-	poorly cell-permeable	failed to improve cell-penetrating ability	-	-	

Further lines, with some results ahead:

Uptake by WM-266-4 cells (in words) (WM-266-4 cells)	Uptake by WM-266-4 cells (WM-266-4 cells)	Uptake by BT549 cells (in words) (BT549 cells)	Uptake by HepG2 cells (in words) (HepG2 cells [2])	Uptake by BT-549cells (BT549 cells)	Uptake by HepG2 cells (HepG2 cells [2])	Compound	other results
poorly cell-permeable	-	poorly cell-permeable	improved cell uptake			IIIR	
taken up well	+++	taken up well	taken up well			LCLK	Cell-penetrating ability compared with LCLR (overall cell fluorescence in wells) (HepG2 cells [3]): reduced activity
	+			+++	+	LCLN	Cell-penetrating ability compared with LCLR (overall cell fluorescence in wells) (HepG2 cells [3]): reduced activity
	+	maintained cell-permeability	did not improve uptake	+++	++	LCLQ	Cell-penetrating ability compared with LCLR (overall cell fluorescence in wells) (HepG2 cells [3]): not significantly different
poorly cell-permeable	-	poorly cell-permeable	improved cell uptake	-	++	VVVR	
